The values that follow come from patent US8748426B2, “Inhibitors of diacylglycerol acyl transferase” (Piramal Enterprises Limited, priority 2009, dated 2014).

Each structure is given as a SMILES string.

The target in one assay is T1, hDGAT1 (Homo sapiens, UniProt O75907).
T1 sequence (O75907 1-488): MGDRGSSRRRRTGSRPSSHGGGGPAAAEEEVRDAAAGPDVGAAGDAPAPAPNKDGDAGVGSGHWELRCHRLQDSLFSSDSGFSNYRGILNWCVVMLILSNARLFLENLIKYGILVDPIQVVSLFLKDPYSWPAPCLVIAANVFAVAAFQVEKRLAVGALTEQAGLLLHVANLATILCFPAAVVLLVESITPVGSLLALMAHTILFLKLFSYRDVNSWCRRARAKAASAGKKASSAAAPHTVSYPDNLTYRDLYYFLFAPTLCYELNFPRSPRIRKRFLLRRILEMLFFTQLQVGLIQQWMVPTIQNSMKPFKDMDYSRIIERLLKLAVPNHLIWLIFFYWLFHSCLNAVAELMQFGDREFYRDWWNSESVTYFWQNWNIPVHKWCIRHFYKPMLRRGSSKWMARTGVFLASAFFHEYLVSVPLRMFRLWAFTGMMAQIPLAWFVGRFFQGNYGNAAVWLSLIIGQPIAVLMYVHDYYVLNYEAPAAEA
Nature of the assay: In-vitro DGAT1 assay (14C oleoyl CoA, hDGAT1 microsomes from Sf9 cells). To be noted: at 1 μM.
Procedure: Sf9 cells were seeded in spinner flasks on day 0 at a cell density of 1×10^6 and infected on day 1 with hDGAT1 baculovirus at a multiplicity of infection (MOI) of 5 and a cell density of 2×10^6. On day 3 (or 66-72 h), cells were harvested and centrifuged at 2500×g for 10 min. Pellet was resuspended in lysis buffer (100 mM sucrose, 50 mM KCl, 40 mM KH2PO4, 30 mM EDTA, pH 7.2) and passed through 21-gauge needle approximately 10 times. […] The supernatant was subjected to centrifugation at 35,000 rpm in a Beckman Ti-45 rotor at 4° C. for 1 h. The resultant pellet containing the microsomes wasere resuspended overnight in 1 mL of lysis buffer and total protein concentration was estimated using Bradford Reagent. Microsomes were aliquoted and stored at −80° C.
Frozen aliquots of hDGAT1 containing microsomes were thawed (5-10 mg/mL total protein) on ice and diluted to a working stock of 1 mg/mL with DGAT Assay Buffer (DAB).
The assay was performed in duplicates in a reaction volume of 100 μL. […] Procedure:
The reaction was started by the addition of 2.5 μL of 1 mg/mL of microsomes (iv) to the mixture and incubated at 37° C. for 10 min. […] The mixture was vortexed and the triglycerides formed were extracted into the organic heptane phase.
On to `O=C(Nc1ccc(-c2ccc3c(c2)C(=O)N([C@H]2CC[C@H](C(=O)O)CC2)C3)cc1)c1cccc(Cl)c1` [Example 559, (1r,4r)-4-(6-(4-(3-Chlorobenzamido)phenyl)-1-oxoisoindolin-2-yl)cyclohexane carboxylic acid], for which the “% Inhibition of hDGAT1” value was “++ (>50% Inhibition)”.
Regarding `CC(C)[C@@H](C(=O)O)N1Cc2ccc(-c3ccc(NC(=O)C4C5CC6CC(C5)CC4C6)cc3)cc2C1=O` (stereo partly drawn) [Example 190, (S)-2-(6-(4-(Adamantyl-2-carboxamido)phenyl)-1-oxoisoindolin-2-yl)-3-methylbutanoic acid], the “% Inhibition of hDGAT1” value is on record as “++ (>50% Inhibition)”.

Still in this assay, the particulars now being: read-out: % Inhibition of hDGAT1.
As for `COc1ccc(S(=O)(=O)Nc2ccc(-c3ccc4c(c3)CN([C@H](C(=O)O)C(C)C)C4=O)cc2)cc1` [Example 297, (S)-2-(5-(4-(4-Methoxyphenylsulfonamido)phenyl)-1-oxoisoindolin-2-yl)-3-methylbutanoic acid], the inhibition (commonly the relative decrease from the control value, in per cent) at 1 µM fell in the range of 10 to 50%.
On to `CC(C)[C@@H](C(=O)O)N1Cc2ccc(-c3ccc(NC(=O)Nc4ccc5c(c4)CCC5)cn3)cc2C1=O` [Example 402, (S)-2-(6-(5-(3-(2,3-Dihydro-1H-inden-5-yl)ureido)pyridin-2-yl)-1-oxoisoindolin-2-yl)-3-methylbutanoic acid], for which the inhibition at 1 µM is over 50%.
For the compound `CCCCOc1ccc(C(=O)Nc2ccc(-c3ccc4c(c3)C(=O)N([C@H](C(=O)O)C(C)C)C4)c(C(F)(F)F)c2)cc1` [Example 432, (S)-2-(6-(4-(4-Butoxybenzamido)-2-(trifluoromethyl)phenyl)-1-oxoisoindolin-2-yl)-3-methylbutanoic acid], the inhibition at 1 µM was 10 to 50%.
Still for that read-out and setting: in the case of `CCOc1cc(OCC)cc(C(=O)Nc2ccc(-c3ccc4c(c3)C(=O)N([C@H](C(=O)O)C(C)C)C4)cc2)c1` [Example 146, (S)-2-(6-(4-(3,5-Diethoxybenzamido)phenyl)-1-oxoisoindolin-2-yl)-3-methyl butanoic acid] it was over 50%; in that of `O=C(Nc1ccc(-c2ccc3c(c2)C(=O)N(C2(C(=O)O)CCC2)C3)cc1)c1ccc(C(F)(F)F)cc1` [Example 580, 1-(1-Oxo-6-(4-(4-(trifluoromethyl)benzamido)phenyl)isoindolin-2-yl)cyclo butane carboxylic acid], over 50%; in that of `O=C(O)CCN1Cc2cc(-c3ccc(NC(=O)Nc4cccc(C(F)(F)F)c4)cc3)ccc2C1=O` [Example 379, 3-(1-Oxo-5-(4-(3-(3-(trifluoromethyl)phenyl)ureido)phenyl)isoindolin-2-yl)propanoic acid], 10 to 50%.
Turning to `CCCCCc1ccc(C(=O)Nc2ccc(-c3ccc4c(c3)CN([C@H](C(=O)O)C(C)C)C4=O)cc2)cc1` [Example 325, (S)-3-Methyl-2-(1-oxo-5-(4-(4-pentylbenzamido)phenyl)isoindolin-2-yl)butanoic acid], the inhibition at 1 µM fell in the range of 10 to 50%.
On the same count and under the same terms, the value for `CC(C)[C@@H](C(=O)O)N1Cc2ccc(-c3ccc(NC(=S)Nc4cccc(Cl)c4)cc3)cc2C1=O` [Example 64, (S)-2-(6-(4-(3-(3-Chlorophenyl)thioureido)phenyl)-1-oxoisoindolin-2-yl)-3-methyl butanoic acid] was 10 to 50%; that for `CC(C)[C@@H](C(=O)O)N1Cc2cc(-c3ccc(NC(=S)Nc4cccc(C(F)(F)F)c4)cc3)ccc2C1=O` [Example 283, (S)-3-Methyl-2-(1-oxo-5-(4-(3-(3-(trifluoromethyl)phenyl)thioureido)phenyl)isoindolin-2-yl)butanoic acid] was over 50%; that for `COc1ccc(NC(=O)Nc2ccc(-c3ccc4c(c3)CN([C@H](C(=O)O)C(C)C)C4=O)cc2)cc1` [Example 249, (S)-2-(5-(4-(3-(4-Methoxyphenyl)ureido)phenyl)-1-oxoisoindolin-2-yl)-3-methylbutanoic acid] was over 50%.
Turning to `Cc1ccc(F)c(C(=O)Nc2ccc(-c3ccc4c(c3)C(=O)N([C@H](C(=O)O)C(C)C)C4)cc2)c1F` [Example 166, (S)-2-(6-(4-(2,6-Difluoro-3-methylbenzamido)phenyl)-1-oxoisoindolin-2-yl)-3-methylbutanoic acid], the inhibition at 1 µM is over 50%.
On the same count and under the same terms, the value for `CC(C)[C@@H](C(=O)O)N1Cc2ccc(-c3ccc(NC(=O)c4ccc5ccccc5c4)c(F)c3)cc2C1=O` [Example 450, (S)-2-(6-(4-(2-Naphthamido)-3-fluorophenyl)-1-oxoisoindolin-2-yl)-3-methyl butanoic acid] was over 50%; that for `CC(C)[C@@H](C(=O)O)N1Cc2ccc(-c3ccc(NC(=O)Nc4ccc5c(c4)CCC5)c(F)c3)cc2C1=O` [Example 438, (S)-2-(6-(4-(3-(2,3-Dihydro-1H-inden-5-yl)ureido)-3-fluorophenyl)-1-oxoisoindolin-2-yl)-3-methylbutanoic acid] was over 50%.
On the same count and under the same terms, the value for `Cc1cc(NC(=O)c2ccc(C(C)(C)C)cc2)ccc1-c1ccc2c(c1)C(=O)N([C@H](C(=O)O)C(C)C)C2` [Example 468, (S)-2-(6-(4-(4-tert-Butylbenzamido)-2-methylphenyl)-1-oxoisoindolin-2-yl)-3-methylbutanoic acid] was over 50%; that for `CC(C)[C@@H](C(=O)O)N1Cc2ccc(-c3ccc(NC(=O)c4ccc(C(C)(C)C)cc4)cc3F)cc2C1=O` [Example 604, (S)-2-(6-(4-(4-(tert-Butyl)benzamido)-2-fluorophenyl)-1-oxoisoindolin-2-yl)-3-methylbutanoic acid] was over 50%.
Take `CC(C)[C@@H](C(=O)O)N1Cc2ccc(-c3ccc(NC(=O)Cc4ccccc4)cc3)cc2C1=O` [Example 659, (S)-3-Methyl-2-(1-oxo-6-(4-(2-phenylacetamido)phenyl)isoindolin-2-yl)butanoic acid]: the inhibition at 1 µM is 10 to 50%.
Same read-out and setting: in the case of `CC(C)[C@@H](C(=O)O)N1Cc2ccc(-c3ccc(NC(=S)Nc4cccc(C#N)c4)cc3)cc2C1=O` [Example 70, (S)-2-(6-(4-(3-(3-Cyanophenyl)thioureido)phenyl)-1-oxoisoindolin-2-yl)-3-methylbutanoic acid] it was 10 to 50%.
`CC(C)[C@@H](C(=O)O)N1Cc2ccc(-c3ccc(NC(=O)c4ccccc4Cl)cc3)cc2C1=O` [Example 132, (S)-2-(6-(4-(2-Chlorobenzamido)phenyl)-1-oxoisoindolin-2-yl)-3-methyl butanoic acid]: the inhibition at 1 µM was 10 to 50%.
Turning to `COc1cccc(NC(=S)Nc2ccc(-c3ccc4c(c3)C(=O)N([C@H](C(=O)O)C(C)C)C4)cc2)c1` [Example 60, (S)-2-(6-(4-(3-(3-Methoxyphenyl)thioureido)phenyl)-1-oxoisoindolin-2-yl)-3-methylbutanoic acid], the inhibition at 1 µM was over 50%.
With `Cc1ccc(NC(=O)Nc2ccc(-c3ccc4c(c3)C(=O)N([C@H](C(=O)O)C(C)C)C4)nc2)cc1C` [Example 398, (S)-2-(6-(5-(3-(3,4-Dimethylphenyl)ureido)pyridin-2-yl)-1-oxoisoindolin-2-yl)-3-methylbutanoic acid], the inhibition at 1 µM is over 50%.
On the same count and under the same terms, in the case of `CC(C)[C@@H](C(=O)O)N1Cc2ccc(-c3ccc(NC(=O)Nc4ccc5c(c4)CCC5)cc3C(F)(F)F)cc2C1=O` [Example 420, (S)-2-(6-(4-(3-(2,3-Dihydro-1H-inden-5-yl)ureido)-2-(trifluoromethyl)phenyl)-1-oxoisoindolin-2-yl)-3-methylbutanoic acid] it was 10 to 50%.
